One experiment deals with S. aureus UC 9213. Description: Murine Assay procedure: in vivo antimicrobial activity, survival of infected mice (S. aureus UC 9213). On the set-up: species or system Staphylococcus aureus (infected female mice). As to conditions: dosed 1 h and 5 h after i.p. infection, survival daily for six days; for ED50: Staphylococcus aureus, UC9213, 144 h, oral, probit. The procedure:
(§1) Antimicrobial activity was tested in vivo using the Murine Assay procedure. Groups of female mice (six mice of 18-20 grams each) were injected intraperitoneally with bacteria which were thawed just prior to use and suspended in brain heart infusion with 4% brewers yeast (Staphylococcus aureus) or brain heart infusion (Streptococcus species). Antibiotic treatment at six dose levels per drug was administered one hour and five hours after affection by either oral intubation or subcutaneous routes. Survival was observed daily for six days. ED50 values based on mortality ratios were calculated using probit analysis. The subject compounds were compared against well-known antimicrobial as controls.

A further experiment concerns S. aureus UC 6685. The experiment in a line: Murine Assay procedure: in vivo antimicrobial activity, survival of infected mice (S. aureus UC 6685). As to conditions: Staphylococcus aureus. Set-up: species or system Staphylococcus aureus (infected female mice). The procedure:
as §1

A further experiment relates to S. aureus UC 9271. The experiment in a line: Murine Assay procedure: in vivo antimicrobial activity, survival of infected mice (S. aureus UC 9271). On the set-up: species or system Staphylococcus aureus (infected female mice). Particulars: Staphylococcus aureus. The procedure: as §1
The next experiment relates to microbial infections. The experiment in a line: treatment of microbial infections (relative activity, test not given).
In another experiment the test system is S. pyogenes UC 152. The experiment in a line: Murine Assay procedure: in vivo antimicrobial activity, survival of infected mice (S. pyogenes UC 152). Set-up: species or system S. pyogenes (infected female mice). Particulars: Streptococcus pyogenes, UC152, 144 h, oral, dosed 1 h and 5 h after i.p. infection, survival daily for six days.

This is an account of results in US5700799A, “Oxazolidinone antimicrobials containing substituted diazine moieties” (Pharmacia & Upjohn Company, priority 1996, dated 1997).

Values joined by “and” are separate entries in the source; they are usually repeats but may differ in a detail not shown here. Identical values can stand only once. Like-named read-outs stand apart in the source and are kept apart here.

`COC(=O)N1CCN(c2ccc(N3CC(CNC(C)=O)OC3=O)cc2)CC1` (stereo not shown) [Example 3, 4-(4-(5-((Acetylamino)methyl)-2-oxo-3-oxazolidinyl)phenyl)-1-piperazinecarboxylic acid, methyl ester] came in with a 50% effective dose (ED50) in the experiment on S. aureus UC 9213 of 10.4 mg/kg.

As for `COC(=O)N1CCN(c2ccc(N3CC(CNC(C)=O)OC3=O)cc2F)CC1` (stereo not shown) [Example 1, 4-(4-(5-((Acetylamino)methyl)-2-oxo-3-oxazolidinyl)-2-fluorophenyl)-1-piperazinecarboxylic acid, methyl ester], the ED50 in the experiment with S. aureus UC 6685 (UC6685, 144 h, S. aureus UC 6685, oral, dosed 1 h and 5 h after i.p. infection, survival daily for six days, read-out: ED50, PO) amounted to 4 mg/kg; in the experiment with S. aureus UC 9213 it was 3.8 mg/kg; with S. aureus UC 9271 (UC9271, 144 h, S. aureus UC 9271, oral, dosed 1 h and 5 h after i.p. infection, survival daily for six days, read-out: ED50, PO) it was 4 mg/kg; with S. pyogenes UC 152, 2.3 mg/kg. The “activity relative to the Formula I compounds” value with microbial infections is reported as “most active”.

In the case of `CN[C@H](CC(C)C)C(=O)N[C@H]1C(=O)N[C@@H](CC(N)=O)C(=O)N[C@H]2C(=O)N[C@H]3C(=O)N[C@H](C(=O)N[C@H](C(=O)O)c4cc(O)cc(O)c4-c4cc3ccc4O)[C@H](O)c3ccc(c(Cl)c3)Oc3cc2cc(c3O[C@@H]2O[C@H](CO)[C@@H](O)[C@H](O)[C@H]2O[C@H]2C[C@](C)(N)[C@H](O)[C@H](C)O2)Oc2ccc(cc2Cl)[C@H]1O` [Vancomycin, reference compound], in the experiment with S. aureus UC 9213 (control antibiotic, subcutaneous, 8640 min), the “Control, ED50, SC” value was 1.8 mg/kg and 1.9 mg/kg. Besides, in the experiment with S. aureus UC 9271 (UC9271, sc, 144 h, read-out: Control, ED50, SC), the ED50 stood at 5.9 mg/kg.

`CC(=O)NCC1CN(c2ccc(N3CCN(CC#N)CC3)c(F)c2)C(=O)O1` (stereo not shown) [Example 9]: the “activity relative to the Formula I compounds” value in the experiment on microbial infections is recorded as “most active”.

The compound `CC(=O)NCC1CN(c2ccc(N3CCN(C(=O)c4ccccc4)CC3)c(F)c2)C(=O)O1` (stereo not shown) [Example 7, N-((3-(4-(3-Fluoro-4-((benzoyl)-1-piperazinyl))phenyl)-2-oxo-5-oxazolidinyl)methyl)-acetamide] registered an ED50 with S. aureus UC 9213 of 12 mg/kg.

`CC(=O)CCC(=O)N1CCN(c2ccc(N3CC(CNC(C)=O)OC3=O)cc2F)CC1` (racemic) [Example 10, (±)-N-[[3-[4-[4-(1,4-Dioxopentyl)-1-piperazinyl]-3-fluorophenyl]-2-oxo-5-oxazolidinyl]methyl)Acetamide] had a median effective dose (ED50) with S. aureus UC 9213 of 9.4 mg/kg.

Consider `CC(=O)NCC1CN(c2ccc(N3CCN(CCC#N)CC3)c(F)c2)C(=O)O1` (stereo not shown) [Example 5, N-((3-(4-(3-Fluoro-4-(4-(2-Cyanoethyl)-1-piperazinyl))phenyl)-2-oxo-5-oxazolidinyl)methyl)-acetamide], for which the ED50 with S. aureus UC 9213 came to 10 mg/kg.

`CC(=O)NCC1CN(c2ccc(N3CCN(C(=O)OCCO)CC3)c(F)c2)C(=O)O1` (stereo not shown) [Example 6, 4-(4-(5-((acetylamino)methyl)-2-oxo-3-oxazolidinyl)-2-fluorophenyl)-1-piperazinecarboxylic acid, 2-hydroxyethyl ester]: the median effective dose (ED50) in the experiment on S. aureus UC 9213 was 12 mg/kg.

In the experiment on S. aureus UC 9213, `COCCN1CCN(c2ccc(N3C[C@H](CNC(C)=O)OC3=O)cc2F)CC1` [Example 36, (S)-N-[[3-[3-fluoro-4-[4-(2-methoxyethyl)-1-piperazinyl]phenyl]-2-oxo-5-oxazolidinyl]methyl]acetamide] came in with a 50% effective dose (ED50) of 7.9 mg/kg.

`COCCN1CCN(c2c(F)cc(N3C[C@H](CNC(C)=O)OC3=O)cc2F)CC1` [Example 37, (S)-N-[[3-[3,5-difluoro-4-[4-(2-methoxyethyl)-1-piperazinyl]phenyl]-2-oxo-5-oxazolidinyl]methyl]acetamide] showed an ED50 in the experiment on S. aureus UC 9213 of 12.6 mg/kg.

As to `O=C(O)c1cn(C2CC2)c2cc(N3CCNCC3)c(F)cc2c1=O` [Ciprofloxacin, reference compound], in the experiment on S. aureus UC 6685 (UC6685, sc, 144 h, read-out: Control, ED50, SC), the ED50 stood at 6.6 mg/kg.

Broadly, the ED50 is the midpoint of the dose-response relation.
